Reference: ChEMBL document CHEMBL3745637, “New hybrid molecules with anticonvulsant and antinociceptive activity derived from 3-methyl- or 3,3-dimethyl-1-[1-oxo-1-(4-phenylpiperazin-1-yl)propan-2-yl]pyrrolidine-2,5-diones” (Bioorg Med Chem, 2016)
Activity calls are given as the source filed them. The rule behind the calls is not given here.

How the values were obtained:
Mus musculus [1] = experiment: Anticonvulsant activity in Swiss mouse assessed as protection against maximal electroshock-induced seizures at 300 mg/kg, ip pretreated for 0.25 hrs; assay type: functional, organism-based
Mus musculus [2] = experiment: Anticonvulsant activity in Swiss mouse assessed as protection against maximal electroshock-induced seizures at 300 mg/kg, ip pretreated for 2 hrs; assay type: functional, organism-based
Mus musculus [3] = experiment: Anticonvulsant activity in Swiss mouse assessed as protection against maximal electroshock-induced seizures at 100 mg/kg, ip pretreated for 0.25 hrs; assay type: functional, organism-based
Mus musculus [4] = experiment: Anticonvulsant activity in Swiss mouse assessed as protection against maximal electroshock-induced seizures at 100 mg/kg, ip pretreated for 2 hrs; assay type: functional, organism-based
Mus musculus [5] = experiment: Anticonvulsant activity in Swiss mouse assessed as protection against maximal electroshock-induced seizures at 100 mg/kg, ip pretreated for 1 hr; assay type: functional, organism-based
Mus musculus [6] = experiment: Anticonvulsant activity in Swiss mouse assessed as protection against maximal electroshock-induced seizures at 100 mg/kg, ip pretreated for 0.5 hrs; assay type: functional, organism-based
Mus musculus [7] = experiment: Toxicity in Swiss mouse assessed as death at 300 mg/kg, ip measured after 0.25 hrs; assay type: organism-based; details: in vivo
Mus musculus [8] = experiment: Anticonvulsant activity in Swiss mouse assessed as protection against maximal electroshock-induced seizures at 300 mg/kg, ip pretreated for 1 hr; assay type: functional, organism-based
Mus musculus [9] = experiment: Anticonvulsant activity in Swiss mouse assessed as protection against maximal electroshock-induced seizures at 300 mg/kg, ip pretreated for 0.5 hrs; assay type: functional, organism-based
Mus musculus [10] = experiment: Anticonvulsant activity in ip dosed Swiss mouse assessed as protection against maximal electroshock-induced seizures at 0.25 hrs; assay type: functional
Mus musculus [11] = experiment: Anticonvulsant activity in ip dosed Swiss mouse assessed as protection against maximal electroshock-induced seizures at 0.5 hrs; assay type: functional
Mus musculus [12] = experiment: Anticonvulsant activity in ip dosed Swiss mouse assessed as reduction in clonic seizures at 0.5 hrs by subcutaneous pentylenetetrazole seizure test; assay type: functional
[13] = Protective index, ratio of TD50 for neurotoxicity in ip dosed Swiss mouse to ED50 for anticonvulsant activity in ip dosed Swiss mouse 6 Hz psychomotor seizure model at 0.5 hrs; assay type: toxicity, organism-based; details: in vivo, read-out: Ratio TD50/ED50
[14] = Protective index, ratio of TD50 for neurotoxicity in ip dosed Swiss mouse to ED50 for anticonvulsant activity in ip dosed MES Swiss mouse model at 0.5 hrs; assay type: toxicity, organism-based; details: in vivo, read-out: Ratio TD50/ED50
Mus musculus [15] = experiment: Anticonvulsant activity against ip dosed Swiss mouse seizure model assessed as protection at 0.5 hrs by 6 Hz psychomotor seizure test; assay type: functional
[16] = Neurotoxicity in ip dosed Swiss mouse seizure model assessed as motor impairment pretreated for 0.25 hrs measured within 60 s by chimney test; assay type: toxicity, organism-based; details: in vivo
[17] = Protective index, ratio of TD50 for neurotoxicity in ip dosed Swiss mouse to ED50 for anticonvulsant activity in ip dosed MES Swiss mouse model at 0.25 hrs; assay type: toxicity, organism-based; details: in vivo, read-out: Ratio TD50/ED50

SMILES	Activity (Mus musculus [1])	Activity (Mus musculus [2])	Activity (Mus musculus [4])	Activity (Mus musculus [5])	Activity (Mus musculus [9])	other results
CC(C(=O)N1CCN(c2ccccc2Cl)CC1)N1C(=O)CC(C)(C)C1=O (configuration not stated)	inactive	inactive	–	–	–	–
CCC(C(=O)N1CCN(c2cccc(Cl)c2)CC1)N1C(=O)CC(C)(C)C1=O (configuration not stated)	–	–	inactive	inactive	–	Activity (Mus musculus [3]): inactive; Activity (Mus musculus [6]): inactive
CC1CC(=O)N(C(C)C(=O)N2CCN(c3ccc(C(F)(F)F)cc3)CC2)C1=O (configuration not stated)	inactive	–	–	–	–	Activity (Mus musculus [7]): Toxic
CC(C(=O)N1CCN(c2cccc(Cl)c2Cl)CC1)N1C(=O)CC(C)(C)C1=O (configuration not stated)	inactive	inactive	–	–	inactive	Activity (Mus musculus [8]): inactive
CC(C(=O)N1CCN(c2ccc(F)cc2)CC1)N1C(=O)CC(C)(C)C1=O (configuration not stated)	inactive	inactive	–	–	–	–
CC(C(=O)N1CCN(c2ccccc2C(F)(F)F)CC1)N1C(=O)CC(C)(C)C1=O (configuration not stated)	Active	–	inactive	inactive	Active	ED50 (Mus musculus [10]): > 130 mg/kg
CC(C(=O)N1CCN(C)CC1)N1C(=O)CC(C)(C)C1=O (configuration not stated)	inactive	inactive	–	–	inactive	Activity (Mus musculus [8]): inactive
CC1CC(=O)N(C(C)C(=O)N2CCN(c3cccc(Cl)c3Cl)CC2)C1=O (configuration not stated)	inactive	inactive	–	–	inactive	Activity (Mus musculus [8]): inactive
CC1CC(=O)N(C(C)C(=O)N2CCN(c3ccccc3)CC2)C1=O (configuration not stated)	–	–	inactive	inactive	–	Activity (Mus musculus [6]): inactive
CCC(C(=O)N1CCN(c2cccc(C(F)(F)F)c2)CC1)N1C(=O)CC(C)(C)C1=O (configuration not stated)	–	–	inactive	–	–	–
CC1CC(=O)N(C(C)C(=O)N2CCN(C)CC2)C1=O (configuration not stated)	inactive	inactive	–	–	inactive	Activity (Mus musculus [8]): inactive
COC[C@@H](NC(C)=O)C(=O)NCc1ccccc1 [LACOSAMIDE]	–	–	–	–	–	ED50 (Mus musculus [11]): 9.4 mg/kg; ED50 (Mus musculus [12]): > 500 mg/kg; selectivity ratio at 0.5 h [13]: 5.26; selectivity ratio at 0.5 h [14]: 3.6; ED50 (Mus musculus [15]): 6.4 mg/kg
Cc1cccc(N2CCN(C(=O)C(C)N3C(=O)CC(C)C3=O)CC2)c1 (configuration not stated)	Active	inactive	inactive	inactive	Active	ED50 (Mus musculus [10]): 122 mg/kg; TD50 at 0.25 h [16]: 210 mg/kg; selectivity ratio at 0.25 h [17]: 1.73
CC(C(=O)N1CCN(c2ccc(Cl)c(Cl)c2)CC1)N1C(=O)CC(C)(C)C1=O (configuration not stated)	–	–	inactive	–	–	–
COc1cccc(N2CCN(C(=O)C(C)N3C(=O)CC(C)C3=O)CC2)c1 (configuration not stated)	–	–	inactive	inactive	–	Activity (Mus musculus [6]): inactive
Cc1cccc(N2CCN(C(=O)C(C)N3C(=O)CC(C)(C)C3=O)CC2)c1 (configuration not stated)	–	inactive	inactive	inactive	–	Activity (Mus musculus [3]): inactive; Activity (Mus musculus [6]): inactive
